The supplement of paper PMC10307832

How the values were obtained:
Experiment in all cases: relative viability (nuclei count vs DMSO), 5 days (fraction); higher = more cells survive
Dabrafenib = compound: CC(C)(C)c1nc(-c2cccc(NS(=O)(=O)c3c(F)cccc3F)c2F)c(-c2ccnc(N)n2)s1 [Dabrafenib]
How it was run: (§1)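 Viability was defined as treated-well nuclei divided by vehicle-well nuclei, with the median taken over replicate plates. Cells from lung cancer lines sat overnight at 37 °C in 1536-well plates, received five √10-spaced library-drug doses by pinning on vehicle-anchored plates, and grew 5 days without medium change before one-step fixation, permeabilisation and Hoechst staining, 4× imaging and MetaXpress nuclear counts. Only plates with control CV under 25% and at least one doubling were kept.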

VX-702 = compound: NC(=O)c1ccc(N(C(N)=O)c2c(F)cccc2F)nc1-c1ccc(F)cc1F [VX-702]
How it was run: as §1

Dabrafenib + Alpelisib = compound: CC(C)(C)c1nc(-c2cccc(NS(=O)(=O)c3c(F)cccc3F)c2F)c(-c2ccnc(N)n2)s1 [Dabrafenib] + Cc1nc(NC(=O)N2CCC[C@H]2C(N)=O)sc1-c1ccnc(C(C)(C)C(F)(F)F)c1 [Alpelisib] (partner 2 µM)
How it was run: (§2)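 Values are medians from duplicate plates. Each reflects relative viability, defined as the nuclei count of treated wells over that of vehicle wells. Lung cancer cell lines in 1536-well plates were pin-tool dosed one day after seeding with one drug alone or with a fixed anchor-drug dose plus five library-drug doses (not always all listed) in √10 steps, then fixed, stained and imaged at 4× after 5 days.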

VX-702 + Bortezomib = compound: NC(=O)c1ccc(N(C(N)=O)c2c(F)cccc2F)nc1-c1ccc(F)cc1F [VX-702] + CC(C)C[C@H](NC(=O)[C@H](Cc1ccccc1)NC(=O)c1cnccn1)B(O)O [Bortezomib] (partner 0.002 µM)
How it was run: as §2

Row | Cell Line | relative viability (Dabrafenib; 0.003 µM) | relative viability (Dabrafenib; 0.009487 µM) | relative viability (Dabrafenib; 0.03 µM) | relative viability (Dabrafenib; 0.09487 µM) | relative viability (Dabrafenib; 0.3 µM) | relative viability (VX-702; 0.02 µM) | relative viability (VX-702; 0.2 µM) | relative viability (VX-702; 0.6325 µM) | relative viability (VX-702; 2 µM) | relative viability (Dabrafenib + Alpelisib; first compound 0.003 µM) | relative viability (Dabrafenib + Alpelisib; first compound 0.009487 µM) | relative viability (Dabrafenib + Alpelisib; first compound 0.03 µM) | relative viability (Dabrafenib + Alpelisib; first compound 0.09487 µM) | relative viability (Dabrafenib + Alpelisib; first compound 0.3 µM) | relative viability (VX-702 + Bortezomib; first compound 0.02 µM) | relative viability (VX-702 + Bortezomib; first compound 0.2 µM) | relative viability (VX-702 + Bortezomib; first compound 0.6325 µM) | relative viability (VX-702 + Bortezomib; first compound 2 µM)
1 | PC-14 | 0.795 | 1.05 | 1.11 | 1.01 | 1.1 | 1.11 | 1.03 | 1.12 | 0.873 | 0.901 | 0.946 | 0.938 | 0.892 | 0.833 | 0.888 | 0.852 | 0.854 | 0.991
2 | 201T | 0.958 | 1.01 | 0.914 | 0.987 | 1.04 | 0.981 | 1 | 1.01 | 0.976 | 1.06 | 1.08 | 0.932 | 1.01 | 1.05 | 1.13 | 1.07 | 1.17 | 1.17
3 | COR-L 105 | 0.851 | 0.995 | 0.927 | 0.955 | 1.13 | 0.941 | 0.961 | 0.879 | 0.861 | 0.829 | 1.08 | 1.16 | 1.13 | 1.14 | 0.957 | 0.888 | 0.907 | 0.54
4 | A-427 | – | 0.983 | 0.849 | 0.797 | 1.03 | 0.985 | 0.964 | 1.04 | 0.754 | – | 1.18 | 0.885 | 0.932 | 1.1 | 0.984 | 0.947 | 0.988 | 1.05
5 | NCI-H1734 | – | 1.08 | 0.716 | 0.765 | 0.891 | 1.04 | 0.919 | 0.876 | 0.703 | – | 0.775 | 0.585 | 0.573 | 0.688 | 0.865 | 0.844 | 0.847 | 0.738
6 | LOU-NH91 | – | 1.07 | 0.905 | 0.935 | 1.09 | 1 | 0.836 | 0.971 | 0.783 | – | 0.803 | 0.652 | 0.7 | 0.743 | 0.507 | 0.502 | 0.513 | 0.532
7 | NCI-H2009 | 0.883 | 0.974 | 0.894 | 0.625 | 0.628 | 1.23 | 1.15 | 1.2 | 1.26 | 1.1 | 1.08 | 1.05 | 0.886 | 0.934 | 1.29 | 1.15 | 1.22 | 1.3
8 | NCI-H1792 | – | 0.915 | 0.877 | 0.679 | 0.806 | 0.763 | 0.87 | 0.866 | 1.05 | – | 0.698 | 0.646 | 0.598 | 0.663 | 0.863 | 0.978 | 0.966 | 1.21
9 | NCI-H1563 | 0.971 | 1.01 | 0.815 | 0.988 | 1.04 | 0.991 | 1.06 | 0.976 | 1.07 | 0.944 | 0.971 | 0.853 | 0.777 | 1.06 | 0.812 | 0.891 | 0.918 | 0.616
